Converted amounts (≈) assume the structure as drawn. Numbered stars: 1 amine (or outer) side, 2 acyl side, 3 side chain; on linkers, the order of the positions; unused ones are H or OH. Bridge positions count the residues as written; N and C are the ends. Square brackets hold non-standard residues; d marks the D form. Peptide text beside a SMILES is read from it. * marks the point of attachment. Orn(4R-OH,5R-OCH2CH2NMe3+) = C[N+](C)(C)CCO[C@@H](N[*:3])[C@H](O)C[C@H](N[*:1])C(=O)[*:2]; hTyr(3S-OH,4S-OH) = N[C@H](C(=O)O)[C@H](O)[C@@H](O)c1ccc(O)cc1; X2 = CCCCCOc1ccc(C#Cc2ccc3cc(C(=O)*)ccc3c2)c(F)c1F; X4 = CCCCCOc1c(F)cc(C#Cc2ccc3cc(C(=O)*)ccc3c2)cc1F; Pro(3S-OH,4S-Me) = C[C@H]1CN[C@H](C(=O)O)[C@H]1O; X3 = CCCCCOc1ccc(C#Cc2ccc3cc(C(=O)*)ccc3c2)cc1F; Hyp = O=C(O)[C@@H]1C[C@@H](O)CN1
Assays:
Assay type in all cases: cell-based
[1] = tested on: C. glabrata ATCC 15126; assay: MIC assay, Candida standard strain (CLSI M27-A3); details: Nakaseomyces glabratus, ATCC15126, 24 h, 35° C.
Procedure: (§1) After gradient dilution of test compounds, an MIC assay was performed on a Candida standard strain, and an MEC assay was performed on an Aspergillus standard strain. […] A cryopreserved strain was passaged at least 2 times. A single colony was picked and resuspended in a physiological saline or sterile water tube, and the tube was subjected to vortex shaking. The Candida suspension was adjusted to 0.5 McF (1×10^6-5×10^6 CFU/mL) at a wavelength of 530 nm by using a spectrophotometer. After being diluted 50 times with physiological saline, the Candida suspension was diluted 20 times with 1×RPMI 1640 broth (1×10^3-5×10^3 CFU/mL). 10 μL of the diluted Candida suspension was coated on an SDA plate for colony counting, with a range of about 10-50 single colonies. After a prepared drug sensitive plate was completely dissolved at room temperature, the Candida suspension was added to the 96-well plate by using a multi-channel pipettor at 100 μL/well. At this time, the concentration of Candida in each well should be 0.5×10^3-2.5×10^3 CFU/mL. A yeast-type fungus assay plate was placed in an incubator, and incubated for 24 h at 35° C. and 85% humidity, and then the MIC values were read. For echinocandin-based drugs, Aspergillus was incubated for 21-26 h at 28° C., and then the MEC results were read. Yeast-type fungi: A 96-well plate was attached with a disposable parafilm, shaken for uniformly mixing, and observed with naked eyes by using a plate reader microscope. […] Pictures were taken and saved by using an automated plate reader.

[2] = tested on: C. krusei ATCC 6258; assay: MIC assay, Candida standard strain (CLSI M27-A3); details: Pichia kudriavzevii, ATCC6258; C. krusei ATCC 6258 (quality-control strain); 24 h, 35° C.
Procedure: as §1

[3] = tested on: C. parapsilosis ATCC 22019; assay: MIC assay, Candida standard strain (CLSI M27-A3); details: Lodderomyces parapsilosis, ATCC22019; C. parapsilosis ATCC 22019 (quality-control strain); 24 h, 35° C.
Procedure: as §1

[4] = tested on: C. tropicalis ATCC 750; assay: MIC assay, Candida standard strain (CLSI M27-A3); details: ATCC750, 24 h, 35° C.
Procedure: as §1

[5] = tested on: Candida albicans ATCC 10231; assay: MIC assay, Candida standard strain (CLSI M27-A3); details: ATCC10231, 24 h, 35° C., >50% growth inhibition
Procedure: as §1

[6] = tested on: Candida albicans ATCC 14053; assay: MIC assay, Candida standard strain (CLSI M27-A3); details: ATCC14053, 24 h, 35° C.
Procedure: as §1

[7] = tested on: Candida albicans ATCC 18804; assay: MIC assay, Candida standard strain (CLSI M27-A3); details: ATCC18804, 24 h, 35° C.
Procedure: as §1

[8] = tested on: Candida albicans ATCC 64124; assay: MIC assay, Candida standard strain (CLSI M27-A3); details: ATCC64124, 24 h, 35° C.
Procedure: as §1

[9] = tested on: Candida albicans ATCC 76485; assay: MIC assay, Candida standard strain (CLSI M27-A3); details: ATCC76485, 24 h, 35° C.
Procedure: as §1

[10] = tested on: Candida albicans ATCC 90028; assay: MIC assay, Candida standard strain (CLSI M27-A3); details: ATCC90028, 24 h, 35° C., >50% growth inhibition
Procedure: as §1

[11] = tested on: Candida albicans ATCC 90029; assay: MIC assay, Candida standard strain (CLSI M27-A3); details: ATCC90029, 24 h, 35° C.
Procedure: as §1

[12] = tested on: Candida albicans ATCC MYA-1023; assay: MIC assay, Candida standard strain (CLSI M27-A3); details: 24 h, 35° C.
Procedure: as §1

[13] = tested on: Candida albicans ATCC MYA-2876; assay: MIC assay, Candida standard strain (CLSI M27-A3); details: 24 h, 35° C.
Procedure: as §1

[14] = tested on: Candida albicans ATCC MYA-427; assay: MIC assay, Candida standard strain (CLSI M27-A3); details: 24 h, 35° C.
Procedure: as §1

[15] = tested on: Candida albicans ATCC MYA-4788; assay: MIC assay, Candida standard strain (CLSI M27-A3); details: 24 h, 35° C.
Procedure: as §1

[16] = tested on: Candida albicans ATCC MYA-574; assay: MIC assay, Candida standard strain (CLSI M27-A3); details: 24 h, 35° C.
Procedure: as §1

[17] = tested on: Candida albicans CICC 1943; assay: MIC assay, Candida standard strain (CLSI M27-A3); details: CICC1943, 24 h, 35° C.
Procedure: as §1

[18] = tested on: Candida albicans CMCC 98001; assay: MIC assay, Candida standard strain (CLSI M27-A3); details: CMCC98001, 24 h, 35° C.
Procedure: as §1

[19] = tested on: Aspergillus fumigatus ATCC 204305; assay: MEC assay, Aspergillus standard strain (CLSI M38-A2); details: 21-26 h, 28° C.
Procedure: After gradient dilution of test compounds, an MIC assay was performed on a Candida standard strain, and an MEC assay was performed on an Aspergillus standard strain.
The colonies on the plate were covered with 0.85% physiological saline (1 mL) or sterile water (polysorbate 20 was added to a final concentration of 0.1%-0.01%). […] The resuspension of spore hyphae was transferred to a sterile test tube, and left to stand for 3-5 min to precipitate heavier particles. The homogeneous suspension on the upper layer was transferred to a new sterile test tube, and the tube was capped closely, and subjected to vortex shaking for 15 s (note: the suspension can produce an aerosol when the cap is reopened). The concentration of the suspension was adjusted to an OD value of 0.09-0.13 at 530 nm by using a spectrophotometer. […] Within 2 h after dilution, 100 μL of the diluted suspension was added to each well in a 96-well plate (the concentration of spores in the final drug sensitive plate should be 0.4×10^4-5×10^4 CFU/mL).
In order to accurately determine MEC value, vortex oscillation should not be allowed before reading the plate.

[20] = tested on: Pichia guilliermondii ATCC 6260; assay: MIC assay, yeast-type fungi (CLSI M27-A3); details: Meyerozyma guilliermondii, ATCC6260, 24 h, 35° C.
Procedure: as §1

[21] = tested on: Cryptococcus neoformans ATCC 208821; assay: MIC assay, yeast-type fungi (CLSI M27-A3); details: ATCC208821, 24 h, 35° C.

| Structure (SMILES) | MIC [1] [µg/mL] | MIC [2] [µg/mL] | MIC [3] [µg/mL] | MIC [4] [µg/mL] | MIC [5] [µg/mL] | MIC [6] [µg/mL] | MIC [7] [µg/mL] | MIC [8] [µg/mL] | MIC [9] [µg/mL] | MIC [10] [µg/mL] | MIC [11] [µg/mL] | MIC [12] [µg/mL] | MIC [13] [µg/mL] | MIC [14] [µg/mL] | MIC [15] [µg/mL] | MIC [16] [µg/mL] | MIC [17] [µg/mL] | MIC [18] [µg/mL] | MEC [19] [µg/mL] | MIC [20] [µg/mL] | also measured |
| --- | --- | --- | --- | --- | --- | --- | --- | --- | --- | --- | --- | --- | --- | --- | --- | --- | --- | --- | --- | --- | --- |
| CC[C@H](C)C[C@H](C)CCCCCCCCC(=O)N[C@H]1C[C@@H](O)[C@@H](NCCN)NC(=O)[C@@H]2[C@@H](O)CCN2C(=O)[C@H]([C@H](O)CCN)NC(=O)[C@H]([C@H](O)[C@@H](O)c2ccc(O)cc2)NC(=O)[C@@H]2C[C@@H](O)CN2C(=O)[C@H]([C@@H](C)O)NC1=O [Caspofungin, reference compound] | 0.12 (≈ 0.11 µM) | 0.25 (≈ 0.229 µM) | 0.5 (≈ 0.457 µM) | 0.06 (≈ 0.0549 µM) | 0.12 (≈ 0.11 µM) | 0.03 (≈ 0.0274 µM) | 0.06 (≈ 0.0549 µM) | 0.12 (≈ 0.11 µM) | 0.06 (≈ 0.0549 µM) | 0.12 (≈ 0.11 µM) | 0.06 (≈ 0.0549 µM) | 0.06 (≈ 0.0549 µM) | 0.06 (≈ 0.0549 µM) | 0.12 (≈ 0.11 µM) | 0.06 (≈ 0.0549 µM) | ≤ 0.015 | 0.06 (≈ 0.0549 µM) | 0.06 (≈ 0.0549 µM) | 0.25 | 0.12 (≈ 0.11 µM) | MIC [21]: 16 µg/mL (≈ 14.6 µM) |
| CCCCCOc1ccc(C#Cc2ccc3cc(C(=O)N[C@H]4C[C@@H](O)[C@@H](OCC[N+](C)(C)C)NC(=O)[C@@H]5[C@@H](O)[C@@H](C)CN5C(=O)[C@H]([C@@H](C)O)NC(=O)[C@H]([C@H](O)[C@@H](O)c5ccc(O)cc5)NC(=O)[C@@H]5C[C@@H](O)CN5C(=O)[C@H]([C@@H](C)O)NC4=O)ccc3c2)c(F)c1F [Example 8] (X2-[Orn(4R-OH,5R-OCH2CH2NMe3+)]T[Hyp][hTyr(3S-OH,4S-OH)]T[Pro(3S-OH,4S-Me)]; lactam 1-C) | 0.06 | 0.12 | 0.5 | ≤ 0.015 | 0.03 | ≤ 0.015 | ≤ 0.015 | ≤ 0.015 | ≤ 0.015 | ≤ 0.015 | ≤ 0.015 | ≤ 0.015 | ≤ 0.015 | 0.03 | ≤ 0.015 | ≤ 0.015 | 0.03 | ≤ 0.015 | 0.03 | 0.25 | MIC [21]: 8 µg/mL |
| CCCCCOc1ccc(C#Cc2ccc3cc(C(=O)N[C@H]4C[C@@H](O)[C@@H](OCC[N+](C)(C)C)NC(=O)[C@@H]5[C@@H](O)[C@@H](C)CN5C(=O)[C@H]([C@@H](C)O)NC(=O)[C@H]([C@H](O)[C@@H](O)c5ccc(O)cc5)NC(=O)[C@@H]5C[C@@H](O)CN5C(=O)[C@H]([C@@H](C)O)NC4=O)ccc3c2)cc1F [Example 10] (X3-[Orn(4R-OH,5R-OCH2CH2NMe3+)]T[Hyp][hTyr(3S-OH,4S-OH)]T[Pro(3S-OH,4S-Me)]; lactam 1-C) | 0.06 | 0.06 | 0.5 | ≤ 0.015 | 0.03 | ≤ 0.015 | ≤ 0.015 | ≤ 0.015 | ≤ 0.015 | ≤ 0.015 | ≤ 0.015 | ≤ 0.015 | ≤ 0.015 | 0.03 | ≤ 0.015 | ≤ 0.015 | 0.03 | ≤ 0.015 | ≤0.015 | 0.25 | MIC [21]: 8 µg/mL |
| CCCCCOc1c(F)cc(C#Cc2ccc3cc(C(=O)N[C@H]4C[C@@H](O)[C@@H](OCC[N+](C)(C)C)NC(=O)[C@@H]5[C@@H](O)[C@@H](C)CN5C(=O)[C@H]([C@@H](C)O)NC(=O)[C@H]([C@H](O)[C@@H](O)c5ccc(O)cc5)NC(=O)[C@@H]5C[C@@H](O)CN5C(=O)[C@H]([C@@H](C)O)NC4=O)ccc3c2)cc1F [Example 14] (X4-[Orn(4R-OH,5R-OCH2CH2NMe3+)]T[Hyp][hTyr(3S-OH,4S-OH)]T[Pro(3S-OH,4S-Me)]; lactam 1-C) | 0.06 | 0.06 | 0.25 | ≤ 0.015 | 0.03 | ≤ 0.015 | ≤ 0.015 | ≤ 0.015 | ≤ 0.015 | ≤ 0.015 | ≤ 0.015 | ≤ 0.015 | ≤ 0.015 | 0.03 | ≤ 0.015 | ≤ 0.015 | 0.03 | ≤ 0.015 | ≤0.015 | 0.25 | MIC [21]: 8 µg/mL |

From patent US20250011365A1, “ECHINOCANDIN-BASED DRUG, AND PREPARATION METHOD THEREFOR AND USE THEREOF” (Shenzhen Sungening Biological Co., Ltd, priority 2023, published 2025)
